{"source": "patent US20160346291A1", "about": "“COMPOSITIONS AND THERAPEUTIC METHODS FOR ACCELERATED PLAQUE REGRESSION” (Resverlogix Corp, priority 2013, published 2016)"}
{"tested_on": "ApoA-I mRNA", "assay": "ApoA-I mRNA quantitation in HepG2 cells (real-time PCR)", "assay_type": "cell-based", "parameters": "key: Active: An active compound is one that causes a >15% increase in ApoA-I mRNA at a concentration less than or equal to 100 uM", "conditions": "concentration less than or equal to 100 uM, fold induction relative to DMSO control", "experimental": "At time of harvesting, the spent media was removed from the HepG2 cells and immediately placed on ice (for immediate use) or at −80° C. (for future use) in ApoA-I and albumin ELISAs. The cells remaining in the plate wells were rinsed in 200 μL PBS. PBS was carefully removed to avoid removing any loosely attached cells.\nOnce the PBS was removed, 85 μL cell lysis solution was added to the cells in each well and incubated for 5-10 min at room temperature, to allow for complete cell lysis and detachment. mRNA was then prepared using the “mRNA Catcher PLUS plate” from Invitrogen, according to the protocol supplied. After the last wash, as much wash buffer as possible was aspirated without allowing the wells to dry. Elution Buffer (E3, 80 μL) was then added to each well. mRNA was then eluted by incubating the mRNA Catcher PLUS plate with Elution Buffer for 5 min at 68° C. and then immediately placing the plate on ice.\nThe eluted mRNA was isolated and then used in a one-step real-time […]-PCR reaction, using components of the Ultra Sense Kit together with Applied Biosystems primer-probe mixes. Real-time PCR data was analyzed, using the Ct values, to determine the fold induction of each unknown sample, relative to the control (that is, relative to the control for each independent DMSO concentration).\nThe following compounds of Formula I were evaluated in this assay. An active compound is one that causes a >15% increase in ApoA-I mRNA at a concentration less than or equal to 100 uM."}
{"smiles": "COc1cc(OC)c2c(=O)[nH]c(-c3cc(C)c(OC)c(C)c3)nc2c1", "note": "[5,7-dimethoxy-2-(4-methoxy-3,5-dimethylphenyl)quinazolin-4(3H)-one]", "Effect on ApoA-I mRNA levels": "Active"}
{"smiles": "COc1cc(OC)c2c(=O)[nH]c(-c3cc(C)c(OCCN)c(C)c3)nc2c1", "note": "[2-(4-(2-aminoethoxy)-3,5-dimethylphenyl)-5,7-dimethoxyquinazolin-4(3H)-one]", "Effect on ApoA-I mRNA levels": "Active"}
{"smiles": "CNC(=O)c1ccccc1C(=O)NCCOc1c(C)cc(-c2nc3cc(OC)cc(OC)c3c(=O)[nH]2)cc1C", "note": "[N1-(2-(4-(5,7-dimethoxy-4-oxo-3,4-dihydroquinazolin-2-yl)-2,6-dimethylphenoxy)ethyl)-N2-methylphthalamide]", "Effect on ApoA-I mRNA levels": "Active"}
{"smiles": "COc1cc(OC)c2c(=O)[nH]c(-c3cc(C)c(OCCNS(=O)(=O)c4ccccc4)c(C)c3)nc2c1", "note": "[N-(2-(4-(5,7-dimethoxy-4-oxo-3,4-dihydroquinazolin-2-yl)-2,6-dimethylphenoxy)ethyl)benzenesulfonamide]", "Effect on ApoA-I mRNA levels": "Active"}
{"smiles": "COc1cc(OC)c2c(=O)[nH]c(-c3ccc(OCCO)c(C)c3)nc2c1", "note": "[2-(4-(2-hydroxyethoxy)-3-methylphenyl)-5,7-dimethoxyquinazolin-4(3H)-one]", "Effect on ApoA-I mRNA levels": "Active"}
{"smiles": "COc1ccc(S(=O)(=O)NCCOc2c(C)cc(-c3nc4cc(OC)cc(OC)c4c(=O)[nH]3)cc2C)cc1", "note": "[N-(2-(4-(5,7-dimethoxy-4-oxo-3,4-dihydroquinazolin-2-yl)-2,6-dimethylphenoxy)ethyl)-4-methoxybenzenesulfonamide]", "Effect on ApoA-I mRNA levels": "Active"}
{"smiles": "COc1cc(OC)c2c(=O)[nH]c(-c3cccc([N+](=O)[O-])c3)nc2c1", "note": "[5,7-dimethoxy-2-(3-nitrophenyl)quinazolin-4(3H)-one]", "Effect on ApoA-I mRNA levels": "Inactive"}
{"smiles": "COc1cc(OC)c2c(=O)[nH]c(-c3ccncc3)nc2c1", "note": "[5,7-dimethoxy-2-(pyridin-4-yl)quinazolin-4(3H)-one]", "Effect on ApoA-I mRNA levels": "Active"}
{"smiles": "COc1cc(OC)c2c(=O)[nH]c(-c3cc(C)c(N)c(C)c3)nc2c1", "note": "[2-(4-amino-3,5-dimethylphenyl)-5,7-dimethoxyquinazolin-4(3H)-one]", "Effect on ApoA-I mRNA levels": "Active"}
{"smiles": "COc1cc(OC)c2c(=O)[nH]c(-c3ccc(O)c(CCO)c3)nc2c1", "note": "[2-(4-hydroxy-3-(2-hydroxyethyl)phenyl)-5,7-dimethoxyquinazolin-4(3H)-one]", "Effect on ApoA-I mRNA levels": "Active"}
{"smiles": "COc1cc(OC)c2c(=O)[nH]c(-c3cc(C)c(OCCNS(=O)(=O)c4ccc(C)cc4)c(C)c3)nc2c1", "note": "[N-(2-(4-(5,7-dimethoxy-4-oxo-3,4-dihydroquinazolin-2-yl)-2,6-dimethylphenoxy)ethyl)-4-methylbenzenesulfonamide]", "Effect on ApoA-I mRNA levels": "Active"}
{"smiles": "CCCNC(=O)OCCOc1c(C)cc(-c2nc3cc(OC)cc(OC)c3c(=O)[nH]2)cc1C", "note": "[2-(4-(5,7-Dimethoxy-4-oxo-3,4-dihydroquinazolin-2-yl)-2,6-dimethyl-phenoxy)ethyl propylcarbamate]", "Effect on ApoA-I mRNA levels": "Active"}
{"smiles": "COc1cc(OC)c2c(=O)[nH]c(-c3cc(C)c(OC)c(C)c3)cc2n1", "note": "[2,4-dimethoxy-7-(4-methoxy-3,5-dimethylphenyl)-1,6-naphthyridin-5(6H)-one]", "Effect on ApoA-I mRNA levels": "Active"}
{"smiles": "NC(=O)COc1ccc(-c2nc3ccccc3c(=O)[nH]2)cc1", "note": "[2-(4-(4-oxo-3,4-dihydroquinazolin-2-yl)phenoxy)acetamide]", "Effect on ApoA-I mRNA levels": "Active"}
{"smiles": "COc1cc(OC)c2c(=O)[nH]c(-c3ccc(O)c(C)c3)nc2c1", "note": "[2-(4-hydroxy-3-methylphenyl)-5,7-dimethoxyquinazolin-4(3H)-one]", "Effect on ApoA-I mRNA levels": "Active"}
{"smiles": "COc1cc(OC)c2c(=O)nc(-c3cc(C)c(O)c(C)c3)n(C)c2c1", "note": "[2-(4-hydroxy-3,5-dimethylphenyl)-5,7-dimethoxy-1-methylquinazolin-4(1H)-one]", "Effect on ApoA-I mRNA levels": "Active"}
{"smiles": "COc1cc(OC)c2c(=O)[nH]c(-c3ccccn3)nc2c1", "note": "[5,7-dimethoxy-2-(pyridin-2-yl)quinazolin-4(3H)-one]", "Effect on ApoA-I mRNA levels": "Active"}
{"smiles": "COc1cc(OC)c2c(=O)[nH]c(-c3cc(C)nc(Cl)c3)nc2c1", "note": "[2-(2-chloro-6-methylpyridin-4-yl)-5,7-dimethoxyquinazolin-4(3H)-one]", "Effect on ApoA-I mRNA levels": "Active"}
{"smiles": "COc1ccc(NC(=O)NCCOc2c(C)cc(-c3nc4cc(OC)cc(OC)c4c(=O)[nH]3)cc2C)cc1", "note": "[1-(2-(4-(5,7-dimethoxy-4-oxo-3,4-dihydroquinazolin-2-yl)-2,6-dimethylphenoxy)ethyl)-3-(4-methoxyphenyl)urea]", "Effect on ApoA-I mRNA levels": "Active"}
{"smiles": "COc1cc(OC)c2c(=O)[nH]c(-c3cc(C)c(O)c(C)c3)nc2n1", "note": "[2-(4-hydroxy-3,5-dimethylphenyl)-5,7-dimethoxypyrido[2,3-d]pyrimidin-4(3H)-one]", "Effect on ApoA-I mRNA levels": "Active"}
{"smiles": "COc1cc(OC)c2c(=O)[nH]c(-c3cc(C)c(OCCN(C)C)c(C)c3)cc2c1", "note": "[3-(4-(2-(dimethylamino)ethoxy)-3,5-dimethylphenyl)-6,8-dimethoxyisoquinolin-1(2H)-one]", "Effect on ApoA-I mRNA levels": "Active"}
{"smiles": "COc1cc2nc(-c3cc(C)c(OCCO)c(C)c3)[nH]c(=O)c2cc1OC", "note": "[2-(4-(2-hydroxyethoxy)-3,5-dimethylphenyl)-6,7-dimethoxyquinazolin-4(3H)-one]", "Effect on ApoA-I mRNA levels": "Active"}
{"smiles": "CN(C)c1ccc(-c2nc3ccccc3c(=O)[nH]2)c2ccccc12", "note": "[2-(4-(dimethylamino)naphthalene-1-yl)quinazolin-4(3H)-one]", "Effect on ApoA-I mRNA levels": "Active"}
{"smiles": "COc1cc(OC)c2c(=O)[nH]c(-c3cc(C)c(OCC(C)(C)O)c(C)c3)cc2c1", "note": "[3-(4-(2-hydroxy-2-methylpropoxy)-3,5-dimethylphenyl)-6,8-dimethoxyisoquinolin-1(2H)-one]", "Effect on ApoA-I mRNA levels": "Active"}
{"smiles": "COc1cc2cc(-c3cc(C)c(O)c(C)c3)[nH]c(=O)c2c(OC)c1CN1CCOCC1", "note": "[3-(4-hydroxy-3,5-dimethylphenyl)-6,8-dimethoxy-7-(morpholinomethyl)isoquinolin-1(2H)-one]", "Effect on ApoA-I mRNA levels": "Active"}
{"smiles": "COc1cc(OC)c2c(=O)[nH]c(-c3ccc(OCC(=O)O)c(OC)c3)nc2c1", "note": "[2-(4-(5,7-dimethoxy-4-oxo-3,4-dihydroquinazolin-2-yl)-2-methoxyphenoxy)acetic acid]", "Effect on ApoA-I mRNA levels": "Active"}
{"smiles": "COc1cc(OC)c2c(=O)[nH]c(-c3ccc(NC(=O)CO)cc3)nc2c1", "note": "[N-(4-(5,7-dimethoxy-4-oxo-3,4-dihydroquinazolin-2-yl)phenyl)-2-hydroxyacetamide]", "Effect on ApoA-I mRNA levels": "Active"}
{"smiles": "COc1cccc2c(=O)[nH]c(-c3ccc(O)c(F)c3)cc12", "note": "[3-(3-fluoro-4-hydroxyphenyl)-5-methoxyisoquinolin-1(2H)-one]", "Effect on ApoA-I mRNA levels": "Inactive"}
{"smiles": "CNC(=O)NCCOc1c(C)cc(-c2nc3cc(OC)cc(OC)c3c(=O)[nH]2)cc1C", "note": "[1-(2-(4-(5,7-dimethoxy-4-oxo-3,4-dihydroquinazolin-2-yl)-2,6-dimethylphenoxy)ethyl)-3-methylurea]", "Effect on ApoA-I mRNA levels": "Active"}
{"smiles": "COc1cc(OC)c2c(=O)[nH]c(-c3ccc(N4CCN(C)CC4)cc3)nc2c1", "note": "[5,7-dimethoxy-2-(4-(4-methylpiperazin-1-yl)phenyl)quinazolin-4(3H)-one]", "Effect on ApoA-I mRNA levels": "Active"}
{"smiles": "O=c1[nH]c(-c2ccc(N(CCO)CCO)cc2)nc2ccccc12", "note": "[2-(4-(bis(2-hydroxyethyl)amino)phenyl)quinazolin-4(3H)-one]", "Effect on ApoA-I mRNA levels": "Active"}
{"smiles": "Cc1cc(-c2nc3cc(Cl)cc(Cl)c3c(=O)[nH]2)cc(C)c1OCCO", "note": "[5,7-dichloro-2-(4-(2-hydroxyethoxy)-3,5-dimethylphenyl)quinazolin-4(3H)-one]", "Effect on ApoA-I mRNA levels": "Active"}
{"smiles": "COc1cc(OC)c2c(=O)[nH]c(-c3cc(C)c(OCCO)c(C)c3)cc2n1", "note": "[7-(4-(2-hydroxyethoxy)-3,5-dimethylphenyl)-2,4-dimethoxy-1,6-naphthyridin-5(6H)-one]", "Effect on ApoA-I mRNA levels": "Active"}
{"smiles": "COc1cc(OC)c2c(=O)[nH]c(-c3cc(C)c(OCCNC(=O)c4ccccc4)c(C)c3)nc2c1", "note": "[N-(2-(4-(5,7-dimethoxy-4-oxo-3,4-dihydroquinazolin-2-yl)-2,6-dimethylphenoxy)ethyl)benzamide]", "Effect on ApoA-I mRNA levels": "Active"}
{"smiles": "COc1cc(OC)c2c(=O)[nH]c(-c3cc(C)c(OCc4ccccc4)c(C)c3)nc2c1", "note": "[2-(4-(benzyloxy)-3,5-dimethylphenyl)-5,7-dimethoxyquinazolin-4(3H)-one]", "Effect on ApoA-I mRNA levels": "Active"}
{"smiles": "COc1cc(OC)c2c(=O)[nH]c(-c3cc(C)c(OCCN4C(=O)c5ccccc5C4=O)c(C)c3)nc2c1", "note": "[2-(2-(4-(5,7-dimethoxy-4-oxo-3,4-dihydroquinazolin-2-yl)-2,6-dimethylphenoxy)ethyl)isoindoline-1,3-dione]", "Effect on ApoA-I mRNA levels": "Inactive"}
{"smiles": "COc1cc(OC)c2c(=O)[nH]c(-c3cc(C)c(OCCN4CCOCC4)c(C)c3)cc2c1", "note": "[3-(3,5-dimethyl-4-(2-morpholinoethoxy)phenyl)-6,8-dimethoxyisoquinolin-1(2H)-one]", "Effect on ApoA-I mRNA levels": "Active"}
{"smiles": "COc1cc(OC)c2c(=O)[nH]c(-c3ccc(N4CCOCC4)cc3)nc2c1", "note": "[5,7-dimethoxy-2-(4-morpholinophenyl)quinazolin-4(3H)-one]", "Effect on ApoA-I mRNA levels": "Active"}
